Reference: patent US20020049223A1, “Quinoline and naphthyridine carboxylic acid antibacterials” (priority 1999, published 2002)

What was measured:
Assay in all cases: Assay B: in vitro antibacterial activity, broth microdilution MIC (NCCLS)
Assay type in all cases: cell-based
Escherichia coli JUHL = details: Table 2, Assay B, cation-adjusted Mueller Hinton broth, 35° C., 16 to 20 hr; code D = Escherichia coli JUHL; unit assumed
Procedure: (§1) Assay B. Determination of Biological Activity In Vitro Assay of Antibacterial Activity
(§2) Representative compounds of the invention were assayed in vitro for antibacterial activity. The susceptibilities of aerobic, nonfastidious species were determined visually by broth microdilution as described by the National Committee for Clinical Laboratory Standards (NCCLS) (National Committee for Clinical Laboratory Standards. 1997. Methods for dilution antimicrobial susceptibility tests for bacteria that grow aerobically. Approved standard M7-A4. National Committee for Clinical Laboratory Standards. Wayne, Pa.). In brief, serial two-fold dilutions of test compounds were made in cation-adjusted Mueller Hinton broth at two-times the final concentration. Inocula were prepared from overnight cultures of test strains. Tests were inoculated with a suspension of bacteria in Mueller Hinton broth to achieve a final density of approximately 5×10^5 CFU/mL. Tests were incubated at 35° C. in ambient air for 16 to 20 hr. Minimum Inhibitory Concentrations (MICs) were determined as the lowest drug concentration completely inhibiting growth. Ciprofloxacin was included as a control. For testing S. pneumoniae, the cation-adjusted Mueller Hinton broth was supplemented with 3% lysed horse blood and the incubation period was extended to 20 to 24 hr. For testing H. influenzae, the cation-adjusted Mueller Hinton broth was supplemented with 5 g/L yeast extract, […] and 15 mg/L NAD and incubation was extended to 20 to 24 hr..

[1] = system: Staphylococcus aureus ATCC 6538P; details: Table 2, Assay B, cation-adjusted Mueller Hinton broth, 35° C., 16 to 20 hr; code A = Staphylococcus aureus ATCC 6538P; unit assumed
Procedure: as §1, §2

[2] = system: Enterococcus faecalis PIU 1967; details: Table 2, Assay B, cation-adjusted Mueller Hinton broth, 35° C., 16 to 20 hr; code B = Enterococcus faecalis PIU 1967; unit assumed
Procedure: as §1, §2

[3] = system: Haemophilus influenzae DILL AMP R; details: Table 2, Assay B, Mueller Hinton broth with yeast extract, hematin and NAD, 20 to 24 hr; code E = Haemophilus influenzae DILL AMP R; unit assumed
Procedure: as §1, §2

[4] = system: Streptococcus pneumoniae ATCC 6303; details: Table 2, Assay B, Mueller Hinton broth with 3% lysed horse blood, 20 to 24 hr; code F = Streptococcus pneumoniae ATCC 6303; unit assumed
Procedure: as §1, §2

| SMILES | Antibacterial Activity (MIC's), D (Escherichia coli JUHL) [µg/mL] | Antibacterial Activity (MIC's), A [1] [µg/mL] | Antibacterial Activity (MIC's), B [2] [µg/mL] | Antibacterial Activity (MIC's), E [3] [µg/mL] | Antibacterial Activity (MIC's), F [4] [µg/mL] |
| --- | --- | --- | --- | --- | --- |
| COc1c(-c2cc3c(s2)CCC(CN)C3)ccc2c(=O)c(C(=O)O)cn(C3CC3)c12.Cl (centres unmarked) [Example 70, 7-(5-(aminomethyl)-4,5,6,7-tetrahydro-1-benzothien-2-yl)-1-cyclopropyl-8-methoxy-4-oxo-1,4-dihydro-3-quinolinecarboxylic acid hydrochloride] | 0.125 | 0.03 | 0.03 | 0.015 | 0.06 |
| COc1c(-c2cc3c(s2)CCC(=NOCc2ccccc2)C3)ccc2c(=O)c(C(=O)O)cn(C3CC3)c12 [Example 79, 7-((5E/Z)-5-((benzyloxy)imino)-4,5,6,7-tetrahydro-1-benzothien-2-yl)-1-cyclopropyl-8-methoxy-4-oxo-1,4-dihydro-3-quinolinecarboxylic acid] | 4 | 0.125 | 1 | 1 | 0.5 |
| COc1c(-c2cc3c(s2)CCCC3NCCO)ccc2c(=O)c(C(=O)O)cn(C3CC3)c12.Cl (centres unmarked) [Example 155, 1-cyclopropyl-7-(4-((2-hydroxyethyl)amino)-4,5,6,7-tetrahydro-1-benzothien-2-yl)-8-methoxy-4-oxo-1,4-dihydro-3-ouinolinecarboxylic acid hydrochloride] | 0.5 | 0.03 | 0.125 | 0.06 | 0.03 |
| COc1c(-c2cc3c(s2)S(=O)(=O)N(C)CC3N)ccc2c(=O)c(C(=O)O)cn(C3CC3)c12.Cl (centres unmarked) [Example 109, 7-(4-amino-2-methyl-1,1-dioxido-3,4-dihydro-2H-thieno[3,2-e][1,2]thiazin-6-yl)-1-cyclopropyl-8-methoxy-4-oxo-1,4-dihydro-3-quinolinecarboxylic acid hydrochloride] | 8 | 0.125 | 2 | 0.125 | 0.5 |
| COc1c(-c2cc3c(s2)CCCC3CN2CCOCC2)ccc2c(=O)c(C(=O)O)cn(C3CC3)c12 (centres unmarked) [Example 126, 1-cyclopropyl-8-methoxy-7-(4-(4-morpholinylmethyl)-4,5,6,7-tetrahydro-1-benzothien-2-yl)-4-oxo-1,4-dihydro-3-quinolinecarboxylic acid] | 16 | 0.004 | 0.5 | 1 | 0.5 |
| COc1c(-c2cc3c(s2)CC(C)(C)CC3O)ccc2c(=O)c(C(=O)O)cn(C3CC3)c12 (centres unmarked) [Example 234, 1-cyclopropyl-7-(4-hydroxy-6,6-dimethyl-4,5,6,7-tetrahydro-1-benzothien-2-yl)-8-methoxy-4-oxo-1,4-dihydro-3-quinolinecarboxylic acid] | 2 | 0.03 | 0.5 | 0.5 | 0.5 |
| COc1c(-c2cc3c(s2)C(N)C(C)CC3)ccc2c(=O)c(C(=O)O)cn(C3CC3)c12.Cl (centres unmarked) [Example 235, 7-(7-amino-6-methyl-4,5,6,7-tetrahydro-1-benzothien-2-yl)-1-cyclopropyl-8-methoxy-4-oxo-1,4-dihydro-3-quinolinecarboxylic acid hydrochloride] | 0.25 | 0.015 | 0.25 | 0.06 | 0.06 |
| COc1c(-c2cc3c(s2)CCCC3=NN2CCN(C)CC2)ccc2c(=O)c(C(=O)O)cn(C3CC3)c12 [Example 92, 1-cyclopropyl-8-methoxy-7-((4E/Z)-4-((4-methyl-1-piperazinyl)imino)-4,5,6,7-tetrahydro-1-benzothien-2-yl)-4-oxo-1,4-dihydro-3-quinolinecarboxylic acid] | 1 | 0.03 | 0.25 | 0.06 | 0.5 |
| COc1c(-c2cc3c(s2)CCCC3NCc2ccccc2)ccc2c(=O)c(C(=O)O)cn(C3CC3)c12.Cl (centres unmarked) [Example 97, 7-(4-(benzylamino)-4,5,6,7-tetrahydro-1-benzothien-2-yl)-1-cyclopropyl-8-methoxn-4-oxo-1,4-dihydro-3-quinolinecarboxylic acid hydrochloride] | 1 | 0.125 | 0.5 | 0.25 | 0.5 |
| COc1c(-c2cc3c(s2)CCCC3NS(C)(=O)=O)ccc2c(=O)c(C(=O)O)cn(C3CC3)c12 (centres unmarked) [Example 88, 1-cyclopropyl-8-methoxy-7-(4-((methylsulfonyl)amino)-4,5,6,7-tetrahydro-1-benzothien-2-yl)-4-oxo-1,4-dihydro-3-quinolinecarboxylic acid] | 1 | 0.015 | 0.25 | 0.125 | 0.125 |
| COc1c(-c2cc3c(s2)CCCC3=NNC(N)=O)ccc2c(=O)c(C(=O)O)cn(C3CC3)c12 [Example 80, 7-((4E/Z)-4-((aminocarbonyl)hydrazono)-4,5,6,7-tetrahydro-1-benzothien-2-yl)-1-cylopropyl-8-methoxy-4-oxo-1,4-dihydro-3-quinolinecarboxylic acid] | > 64 | 32 | > 64 | 0.06 | 0.03 |

Results, then the compound that gave them:

| Antibacterial Activity (MIC's), D (Escherichia coli JUHL) [µg/mL] | Antibacterial Activity (MIC's), A [1] [µg/mL] | Antibacterial Activity (MIC's), B [2] [µg/mL] | Antibacterial Activity (MIC's), E [3] [µg/mL] | Antibacterial Activity (MIC's), F [4] [µg/mL] | SMILES |
| --- | --- | --- | --- | --- | --- |
| 1 | 0.015 | 0.25 | 0.25 | 1 | COc1c(-c2cc3c(s2)C(O)C(C)(C)CC3)ccc2c(=O)c(C(=O)O)cn(C3CC3)c12 (centres unmarked) [Example 241, 1-cyclopropyl-7-(7-hydroxy-6,6-dimethyl-4,5,6,7-tetrahydro-1-benzothien-2-yl)-8-methoxy-4-oxo-1,4-dihydro-3-quinolinecarboxylic acid] |
| 1 | 0.06 | 0.5 | 0.06 | 0.25 | COc1c(-c2cc3c(s2)CC(NS(C)(=O)=O)C3)ccc2c(=O)c(C(=O)O)cn(C3CC3)c12 (centres unmarked) [Example 254, 1-cyclopropyl-8-methoxy-7-(5-((methylsulfonyl)amino)-5,6-dihydro-4H-cyclopenta[b]thien-2-yl)-4-oxo-1,4-dihydro-3-quinolinecarboxylic acid] |
| 0.06 | ≤ 0.004 | 0.06 | 0.015 | 0.03 | Nc1c(F)c(-c2cc3c(s2)C(O)CCC3)c(F)c2c1c(=O)c(C(=O)O)cn2C1CC1 (centres unmarked) [Example 319, 5-amino-1-cyclopropyl-6,8-difluoro-7-(7-hydroxy-4,5,6,7-tetrahydro-1-benzothien-2-yl)-4-oxo-1,4-dihydroquinoline-3-carboxylic acid] |
| 0.03 | 0.03 | 0.125 | 0.015 | 0.03 | CNC1CCCc2sc(-c3cc4c(cc3F)c(=O)c(C(=O)O)cn4C3CC3)cc21.Cl (centres unmarked) [Example 290, 1-cyclopropyl-6-fluoro-7-(4-(methylamino)-4,5,6,7-tetrahydro-1-benzothien-2-yl)-4-oxo-1,4-dihydroquinoline-3-carboxylic acid hydrochloride] |
| 0.06 | 0.015 | 0.06 | 0.015 | 0.03 | CNC1CCCc2sc(-c3ccc4c(=O)c(C(=O)O)cn(C5CC5)c4c3Cl)cc21.Cl (centres unmarked) [Example 361, 8-chloro-1-cyclopropyl-7-(4-(methylamino)-4,5,6,7-tetrahydro-1-benzothien-2-yl)-4-oxo-1,4-dihydroquinoline-3-carboxylic acid hydrochloride] |
